For experiment [1], the target named is CB1 receptor (Homo sapiens, UniProt P21554). In words: [35S]GTPγS binding, compound alone, 24 hours FBS-starved CB1 CHO cells. Type of experiment: biochemical. Conditions: 1 nM to 10 μM. An excerpt: (§1) The [^35S] GTPγS binding assay is simply a means of measuring G protein activation following agonist occupation of a GPCR. The significance of replacing endogenous GTP with radiolabeled [^35S] GTPγS is two-fold. […] GTPγS. Secondly, as with any radiolabelling, the aim is to allow quantitative analysis of a selected molecular species, in this case the degree of agonist binding can be gauged by measuring the subsequent levels of radioactivity in the desired tissue.
Sequence of CB1 receptor (Homo sapiens, UniProt P21554) (P21554 whole entry): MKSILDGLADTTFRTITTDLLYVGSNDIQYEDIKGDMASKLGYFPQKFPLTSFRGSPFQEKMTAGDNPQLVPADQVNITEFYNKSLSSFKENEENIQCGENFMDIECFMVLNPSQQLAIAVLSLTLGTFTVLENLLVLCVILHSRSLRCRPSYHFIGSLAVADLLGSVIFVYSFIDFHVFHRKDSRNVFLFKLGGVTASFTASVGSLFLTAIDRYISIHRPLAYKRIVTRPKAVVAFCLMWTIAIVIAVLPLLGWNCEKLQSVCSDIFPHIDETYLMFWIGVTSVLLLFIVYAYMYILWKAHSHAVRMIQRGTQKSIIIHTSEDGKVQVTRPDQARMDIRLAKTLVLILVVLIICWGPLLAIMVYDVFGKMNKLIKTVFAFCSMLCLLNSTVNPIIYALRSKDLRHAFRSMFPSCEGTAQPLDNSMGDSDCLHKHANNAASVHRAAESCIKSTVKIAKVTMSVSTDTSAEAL
(§2) A vehicle control was an essential aspect of the experiment. […] The vehicle is made up of 10 μL of DMSO and 990 μL of binding buffer, resulting in the assay containing 0.1% vehicle.
(§3) Buffer; [^35S] […] The GTPγS binding assay was initiated by the addition of the [^35S] GTPγS. The assay was incubated at 37° C. in a water bath for 1 hour. The assay was terminated by addition of ice-cold Tris/BSA buffer and rapid vacuum filtration using a 24-well Brandel (cell harvester) and glass-fibre filters that have been soaked in Tris/BSA buffer at 4° C. for 24 hours. Each well was washed 6 times with 1.2 mL of Tris/BSA buffer. The filters were then oven dried for 1 hour. The sections of filter papers were then separated and placed in individual vials, to which 5 mL of scintillation fluid was added. The filter papers were soaked in the scintillation fluid for 1 hour before the radioactivity in each vial was quantified by liquid scintillation spectrometry.
(§4) The data was fitted to a sigmoidal concentration-response curve using GraphPad Prism 4. Significance was defined by a one-sample t-test (GraphPad Prism 4), which compared mean % stimulation values S.E.M. to the basal binding level, 0.0% stimulation.
The vertical lines indicate S.E.M. (standard error of the mean) (*= P<0.05, **= P<0.01, ***= P<0.001, one-sample t-test) (n=4).

Experiment [2] has as its target T1, CB1 receptor (Mus musculus, UniProt P47746). As to the kind of experiment: Electrically-evoked contractions of isolated mouse vas deferens, compound alone. Conditions: 1 μM, tested alone. On the set-up: The isolated vas deferens was then removed from the mouse by cutting through its prostatic end; from tissue; host or cells: isolated vas deferens of male albino MF1 mice. The source says: (§5) The vas deferens (or ductus deferens) is a muscular tube, approximately 3 mm in diameter and 30 cm in length, connecting the left and right epididymis to the ejaculatory ducts in order to move sperm. It is bound by connective tissue with an ample supply of blood vessels, nerves, and lymphatics. This in vitro bioassay exploits the expression of CB1 receptors on the presynaptic nerve terminals of this tubular structure.
(§6) The animals used in the study were male albino MF1 mice bred and were housed six to eight per-cage and were kept in a temperature-controlled room which was maintained on a fixed light-dark cycle. All mice were given free access to food and water. Subjects used in the study were a minimum of four weeks of age. Each mouse was stunned by striking the back of the head and killed by dislocation of the neck (cervical vertebrae). Following the killing, the mouse body weight was determined. A transverse incision, approximately of 1.5 cm, was made in the skin with the aid of dissection scissors. A similar-sized transverse incision was made through the lower abdominal wall. […] This was used to identify the vas deferens, which is attached to the testis via the epididymis. Gripping the epididymis with forceps, the vas deferens was cut free first from the testis and then from the connective tissue. The isolated vas deferens was then removed from the mouse by cutting through its prostatic end. This procedure was repeated on the right testis. It was important that throughout the latter two stages of this dissection, care was taken to ensure the vas deferens was not overstretched. In addition to their vas deferens, these animals were euthanized for use of their brain and small intestine by fellow researchers in different research fields. This minimisation of the number of animals euthanized complied with the European Community guidelines.
(§7) During transit, the two isolated vas deferens from each mice were kept moist in a glass vial filled with warm modified Mg^2+-free Krebs' solution. Before setting the tissue up in an organ bath, further removal of connective tissue, mesentery, and the epididymis was performed; cotton thread was tied securely to both end of the vas deferens.
(§8) The one-tailed thread was attached to the Pioden UF1 isometric transducer (Harvard Apparatus) and the two-tailed thread hung out of the bottom of the bath. The latter served as an anchor point for applying tension. […] Contractile activity was recorded using the isometric transducer and the output monitored by a computer connected to the data recording and analysis system (MacLab or PowerLab). The tissues were then ready for stimulation. […]

Another experiment concerns the target T2, cannabinoid CB1 receptor (Mus musculus, UniProt P47746).
T2 construct: Whole brains from eight adult male mice were dissected and suspended in centrifugation buffer; from tissue; host or cells: mouse whole brain membranes
As to the kind of experiment: Mouse brain competition binding assay, [3H]CP55940 displacement. Here is the method:
The competition binding assay is a […] radioligand binding assay, which determines the affinity of a given compound for a specific receptor site, in this instance, the cannabinoid CB1 receptor. Mouse brain membranes were the chosen tissue due to their high expression of CB1 receptors.
Whole brains from eight adult male mice were dissected and suspended in centrifugation buffer. The brains were then homogenised with a Polytron Homogeniser prior to centrifugation at 1,600 RCF, 4° C. for 10 minutes. Centrifugation produced a supernatant, which was collected, and then the remaining pellet was re-suspended in centrifugation buffer and centrifuged as before. All supernatants were combined, and centrifuged at 28,000 RCF, 4° C. for a further 20 minutes. The supernatant was then discarded and the pellet re-suspended in Buffer A before incubation for 10 minutes at 37° C. The membrane suspension was then centrifuged at RCF 23,000, 4° C. for 20 minutes. The pellet was then re-suspended in Buffer A and incubated for 40 minutes at room temperature. The suspension was then centrifuged for 15 minutes at RCF 11,000, 4° C., and the pellet was then re-suspended in Buffer B. Finally a Protein Assay was carried out to determine the protein content of the mouse membrane preparation. The membrane samples were then made up into 1 mL aliquots of 1 mg/mL protein concentration and stored at −80° C. The samples were removed and defrosted when they were required.
The competition binding assay utilizes standard binding buffer, comprising:
10 μL of 1 mM stock of CP55940 in DMSO was added to 990 μL of binding buffer.
This was essential to obtain a value for specific binding, which is defined as the difference between the binding that occurs in the presence and absence of […] unlabelled CP55940.
as §3, with “[^3H]” for “[^35S]”, “competition” for “GTPγS binding”, “membranes.” for “[^35S] GTPγS.”, “had” for “have”
Data were fitted to a one-site competition curve using GraphPad Prism 4.

Experiment [3] deals with T1, CB1 receptor. In words: [35S]GTPγS binding, compound alone (Table 2, Function). The class given is biochemical. Also on record: from tissue.
Text: as §1, §2, §3, §4

Experiment [4] addresses T1, CB1 receptor. As to the kind of experiment: [35S]GTPγS binding assay in mouse brain membranes, antagonism of CP55940. The class given is biochemical. Also on record: Whole brains from eight adult male mice were dissected and suspended in centrifugation buffer; from tissue; host or cells: mouse whole brain membranes.
Text: as §1, §2, §3, §4

Experiment [5] has as its target T1, CB1 receptor. As to the kind of experiment: Electrically-evoked contractions of mouse isolated vas deferens, antagonism of CP55940. On the set-up: The isolated vas deferens was then removed from the mouse by cutting through its prostatic end; from tissue; host or cells: isolated vas deferens of male albino MF1 mice.
Text: as §5, §6, §7, §8

The mark [6] stands for this setting: mouse brain membranes, [3H]CP55940 0.7 nM, read-out: Ki (nM) [affinity] Mouse Brain [3H]CP55940 Displacement.

Each structure is given as a SMILES string. Read-outs that look alike come from different tables or passages of the source.

These results are taken from US20100022611A1 (THE UNIVERSITY COURT OF THE UNIVERSITY OF ABERDEEN, priority 2007, published 2010).

T1 sequence (P47746 whole entry): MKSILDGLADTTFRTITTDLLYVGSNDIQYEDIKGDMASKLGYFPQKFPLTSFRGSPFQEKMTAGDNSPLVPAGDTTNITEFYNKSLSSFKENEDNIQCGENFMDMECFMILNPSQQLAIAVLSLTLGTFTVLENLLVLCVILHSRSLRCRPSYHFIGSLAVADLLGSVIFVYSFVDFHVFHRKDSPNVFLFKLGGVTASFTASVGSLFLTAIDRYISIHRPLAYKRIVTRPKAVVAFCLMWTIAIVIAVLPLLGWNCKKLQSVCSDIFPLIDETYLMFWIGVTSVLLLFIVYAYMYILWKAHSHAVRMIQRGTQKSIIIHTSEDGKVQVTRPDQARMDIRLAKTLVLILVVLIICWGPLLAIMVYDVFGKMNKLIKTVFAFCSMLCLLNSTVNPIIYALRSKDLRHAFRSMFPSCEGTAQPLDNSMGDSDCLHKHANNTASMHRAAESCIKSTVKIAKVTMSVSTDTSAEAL
T2 sequence (P47746 whole entry): as above

As for `Cc1c(C(=O)CC2CCCCC2)nn(-c2ccc(Cl)cc2Cl)c1-c1ccc(Cl)cc1` [ABD395], the “Effect on [35S]GTPγS binding, compound alone” value (“Effect on [35S]GTPγS binding” for short) at CB1 receptor [1] is “only a small increase”. The “Effect on electrically-evoked contractions of isolated mouse vas deferens” value (“Effect … of isolated mouse vas deferens” for short) at CB1 receptor [2] is “neither inhibited nor significantly enhanced”. For the same compound, the Ki on cannabinoid CB1 receptor (setting [6]) came out at 3.78 nM. Also, at CB1 receptor [3] (compound alone), the “Function Mouse Brain [35S]GTPγS Alone” value is recorded as “Neutral antagonist”. The “Shift in the log concentration response curve for CP55940, [35S]GTPγS” value on CB1 receptor [4] is reported as “right-ward shift”. The “Shift in the log concentration response curve for CP55940, vas deferens contraction” value at CB1 receptor [5] is “right-ward shift”.
Turning to `Cc1c(C(=O)CC2CCCCC2)nn(-c2ccc(Cl)cc2Cl)c1-c1ccc(Br)cc1` [ABD399], the “Effect on [35S]GTPγS binding” value on CB1 receptor [1] was “no reduction”. On CB1 receptor [2], the “Effect … of isolated mouse vas deferens” value is on record as “neither inhibited nor significantly enhanced”. The same compound showed an inhibition constant (Ki) at cannabinoid CB1 receptor of 12.3 nM. Besides, the “Function Mouse Brain [35S]GTPγS Alone” value on CB1 receptor [3] (compound alone) was “Neutral antagonist”. The “Shift in the log concentration response curve for CP55940, [35S]GTPγS” value at CB1 receptor [4] is recorded as “right-ward shift”. Further, on CB1 receptor [5], the “Shift in the log concentration response curve for CP55940, vas deferens contraction” value was “right-ward shift”.
Consider `Cc1c(C(O)CC2CCCCC2)nn(-c2ccc(Cl)cc2Cl)c1-c1ccc(Br)cc1` (stereo not shown) [ABD402, 1-[5-(4-Bromophenyl)-1-(2,4-dichlorophenyl)-4-methylpyrazol-3-yl]-2-cyclohexylethanol], for which the “Effect on [35S]GTPγS binding” value on CB1 receptor [1] was “no reduction”. Moreover, the “Effect … of isolated mouse vas deferens” value on CB1 receptor [2] was “neither inhibited nor significantly enhanced”. At cannabinoid CB1 receptor, the affinity, expressed as Ki, was 32.3 nM. The “Function Mouse Brain [35S]GTPγS Alone” value at CB1 receptor [3] (compound alone) is recorded as “Neutral antagonist”. On CB1 receptor [4], the “Shift in the log concentration response curve for CP55940, [35S]GTPγS” value is recorded as “right-ward shift”. The “Shift in the log concentration response curve for CP55940, vas deferens contraction” value on CB1 receptor [5] is “right-ward shift”.
On to `Cc1cccc(CC(=O)c2nn(-c3ccc(Cl)cc3Cl)c(-c3ccc(Cl)cc3)c2C)c1` [ABD434], for which the Ki on cannabinoid CB1 receptor came out at 7.42 nM. Further, the “Function Mouse Brain [35S]GTPγS Alone” value on CB1 receptor [3] is given as “Neutral antagonist”.
Take `Cc1c(C(=O)Cc2ccc(F)cc2)nn(-c2ccc(Cl)cc2Cl)c1-c1ccc(Cl)cc1` [ABD436]: at cannabinoid CB1 receptor (setting [6]), the inhibition constant (Ki) was 7.15 nM. Further, the “Function Mouse Brain [35S]GTPγS Alone” value on CB1 receptor [3] (compound alone) is on record as “Neutral antagonist”.
`Cc1ccc(C(=O)c2nn(-c3ccc(Cl)cc3Cl)c(-c3ccc(Cl)cc3)c2C)cc1C` [ABD437] registered a Ki on cannabinoid CB1 receptor of 14.2 nM. Also, on CB1 receptor [3], the “Function Mouse Brain [35S]GTPγS Alone” value is on record as “Neutral antagonist”.
On the same counts, the results for `COc1cccc(C(=O)c2nn(-c3ccc(Cl)cc3Cl)c(-c3ccc(Br)cc3)c2C)c1` [ABD438] are 7.7 nM and “Neutral antagonist”.
On to `COc1cccc(CC(=O)c2nn(-c3ccc(Cl)cc3Cl)c(-c3ccc(Br)cc3)c2C)c1` [ABD439], for which, on cannabinoid CB1 receptor (setting [6]), the Ki worked out at 19.7 nM. In addition, at CB1 receptor [3] (compound alone), the “Function Mouse Brain [35S]GTPγS Alone” value is given as “Neutral antagonist”.
As to `Cc1ccc(CC(=O)c2nn(-c3ccc(Cl)cc3Cl)c(-c3ccc(Br)cc3)c2C)cc1` [ABD440], on cannabinoid CB1 receptor (setting [6]), the Ki is 27.1 nM. In addition, at CB1 receptor [3] (compound alone), the “Function Mouse Brain [35S]GTPγS Alone” value is “Neutral antagonist”.
The compound `Cc1c(C(=O)c2cccc(C(F)(F)F)c2)nn(-c2ccc(Cl)cc2Cl)c1-c1ccc(Cl)cc1` [ABD449] showed a Ki at cannabinoid CB1 receptor of 64.8 nM. For the same compound, the “Function Mouse Brain [35S]GTPγS Alone” value at CB1 receptor [3] is “Neutral antagonist”.
`Cc1c(C(=O)c2ccc(F)cc2)nn(-c2ccc(Cl)cc2Cl)c1-c1ccc(Cl)cc1` [ABD450]: the Ki on cannabinoid CB1 receptor (setting [6]) was 63.2 nM. Moreover, the “Function Mouse Brain [35S]GTPγS Alone” value on CB1 receptor [3] (compound alone) is given as “Neutral antagonist”.
For `Cc1c(C(=O)c2cccc(F)c2)nn(-c2ccc(Cl)cc2Cl)c1-c1ccc(Cl)cc1` [ABD453], the Ki at cannabinoid CB1 receptor (setting [6]) was 13.8 nM. Besides, the “Function Mouse Brain [35S]GTPγS Alone” value at CB1 receptor [3] (compound alone) was “Neutral antagonist”.
Regarding `Cc1c(C(=O)c2cccc(OC(F)(F)F)c2)nn(-c2ccc(Cl)cc2Cl)c1-c1ccc(Cl)cc1` [ABD454], the Ki at cannabinoid CB1 receptor (setting [6]) came out at 26.7 nM. For the same compound, on CB1 receptor [3] (compound alone), the “Function Mouse Brain [35S]GTPγS Alone” value was “Neutral antagonist”.
On the same counts, the results for `COc1ccc(C(=O)c2nn(-c3ccc(Cl)cc3Cl)c(-c3ccc(Br)cc3)c2C)cc1` [ABD459] are 8.6 nM and “Neutral antagonist”.
